Results reported in PubChem BioAssay AID1996.
≈ marks a conversion by molar mass, not a printed value.

Conditions: buffer; pH 7.4; 200.0 µM

Question: For `Cc1cc(NC(=O)c2cc([N+](=O)[O-])ccc2Cl)no1`, which solubility kinetic is on record?
Answer: The solubility kinetic was over 42.2 µg/mL.

Question: For `CC(=O)c1ccc(OCC(O)CNCc2ccc3c(c2)OCO3)cc1` (centres undefined), which solubility kinetic is on record?
Answer: The solubility kinetic was 46.2 µg/mL (≈ 135 µM).

Question: With `CCCCC(=O)NC(=O)NC(c1ccccc1)c1ccccc1` as the molecule, how does the solubility kinetic read?
Answer: Its solubility kinetic is under 0.3 µg/mL.

Question: With `N#CCc1ccc(NC(=O)Cn2c(=O)oc3ccccc32)cc1` as the molecule, how does the solubility kinetic read?
Answer: The solubility kinetic was 6.7 µg/mL (≈ 21.8 µM).

Question: With `Cc1cc(-n2c(C)cc(C(=O)CSc3ccccn3)c2C)no1` as the molecule, how does the solubility kinetic read?
Answer: The solubility kinetic was 33.4 µg/mL (≈ 102 µM).

Question: For `COC(=O)c1sccc1NC(=O)Nc1cc(OC)ccc1OC`, which solubility kinetic is on record?
Answer: The solubility kinetic was 10.3 µg/mL (≈ 30.6 µM).

Question: Which solubility kinetic does the source give for `O=C(CSc1ncccn1)NC(=O)Cc1ccccc1` here?
Answer: Its solubility kinetic is over 43.1 µg/mL.

Question: With `O=S(=O)(Nc1ccc(Cl)cc1)c1cccc2nsnc12` as the molecule, how does the solubility kinetic read?
Answer: The solubility kinetic was over 48.9 µg/mL.

Question: With `CN(C(=O)CSc1ncnc2sc3c(c12)CCCC3)C1CCS(=O)(=O)C1` (centres undefined) as the molecule, how does the solubility kinetic read?
Answer: Its solubility kinetic is over 61.7 µg/mL.

Question: Which solubility kinetic does the source give for `Cn1ccnc1C(OC(=O)c1ccc(Cl)cc1)C(F)(F)F` (centres undefined) here?
Answer: The solubility kinetic was over 47.8 µg/mL.

Question: Which solubility kinetic does the source give for `O=P(C(Cl)Cl)(N1CCOCC1)N1CCOCC1` here?
Answer: The solubility kinetic was over 45.5 µg/mL.

Question: With `CCC(=O)Nc1c(-c2ccc(C)cc2)c(=O)c2ccccc2n1C` as the molecule, how does the solubility kinetic read?
Answer: Its solubility kinetic is 20.8 µg/mL (≈ 64.9 µM).

Question: With `Cc1ccccc1NC(=O)COc1ccc2c(c1)OC(C)(C)CC2=O` as the molecule, how does the solubility kinetic read?
Answer: The solubility kinetic was under 0.7 µg/mL.

Question: With `Cc1ccnc(NC(=O)COC(=O)c2ccc(F)cc2F)n1` as the molecule, how does the solubility kinetic read?
Answer: The solubility kinetic was over 46.1 µg/mL.

Question: Which solubility kinetic does the source give for `Cc1nnc(SCC(=O)c2c(N)n(C3CC3)c(=O)[nH]c2=O)n1C` here?
Answer: The solubility kinetic was over 50.5 µg/mL.

Question: With `O=C(CSc1cc(Cl)ccc1Cl)NCCN1C(=O)CSC1=O` as the molecule, how does the solubility kinetic read?
Answer: Its solubility kinetic is over 56.9 µg/mL.

Question: With `Cc1ccc(NC(=O)CN(C)C(=O)c2ccc(Br)o2)cc1` as the molecule, how does the solubility kinetic read?
Answer: Its solubility kinetic is 14.1 µg/mL (≈ 40.1 µM).

Question: Which solubility kinetic does the source give for `O=C(O)c1cccc([N+](=O)[O-])c1C(=O)Nc1nc2ccccc2s1` here?
Answer: Its solubility kinetic is over 51.5 µg/mL.

Question: For `Cc1ccc(N2C(=O)N(CC(=O)Nc3cc(C)cc(C)c3)C(=O)C2C)cc1` (centres undefined), which solubility kinetic is on record?
Answer: Its solubility kinetic is 7.5 µg/mL (≈ 20.5 µM).

Question: Which solubility kinetic does the source give for `O=c1cnc2ccccc2n1Cc1ccccc1C(F)(F)F` here?
Answer: Its solubility kinetic is 43.1 µg/mL (≈ 142 µM).

Question: Which solubility kinetic does the source give for `COc1cc2c(cc1OC)CN(c1ccc(C(F)(F)F)cn1)CC2` here?
Answer: The solubility kinetic was 34.9 µg/mL (≈ 103 µM).

Question: Which solubility kinetic does the source give for `Cc1cc(C)cc(NC(=O)c2ccc3c(c2)CCN3S(C)(=O)=O)c1` here?
Answer: The solubility kinetic was 0.5 µg/mL (≈ 1.45 µM).

Question: For `CCOC(=O)C(=CNc1ccc(OC)cc1[N+](=O)[O-])C(=O)OCC`, which solubility kinetic is on record?
Answer: Its solubility kinetic is 0.9 µg/mL (≈ 2.66 µM).

Question: With `Cc1ccccc1OC(=O)c1cccnc1` as the molecule, how does the solubility kinetic read?
Answer: Its solubility kinetic is 28.4 µg/mL (≈ 133 µM).

Question: Which solubility kinetic does the source give for `CCOc1ccccc1C1CC(=O)Nc2cc(OC)c(OC)cc21` (centres undefined) here?
Answer: Its solubility kinetic is 0.9 µg/mL (≈ 2.75 µM).

Question: Which solubility kinetic does the source give for `O=C(CN1C(=O)NC2(CCCc3ccccc32)C1=O)c1ccccc1F` (centres undefined) here?
Answer: Its solubility kinetic is 10.4 µg/mL (≈ 29.5 µM).

Question: Which solubility kinetic does the source give for `CCOc1ccc(NC(=O)c2cc3ccccc3cc2OC)cc1` here?
Answer: Its solubility kinetic is under 0.7 µg/mL.

Question: With `COCCC(=O)Nc1ccc2c(c1)CN(C(=O)CCOC)CC2` as the molecule, how does the solubility kinetic read?
Answer: Its solubility kinetic is over 48.1 µg/mL.

Question: For `CCC(C)NC(=O)CN1C(=O)C(CC)Sc2ccccc21` (centres undefined), which solubility kinetic is on record?
Answer: The solubility kinetic was over 46 µg/mL.

Question: Which solubility kinetic does the source give for `Cc1[nH]c2ccccc2c1C(=O)COC(=O)c1ccc[n+]([O-])c1` here?
Answer: The solubility kinetic was 39.7 µg/mL (≈ 128 µM).

Question: With `CC(C)(C)c1ccc(S(=O)(=O)NCc2ccccn2)cc1` as the molecule, how does the solubility kinetic read?
Answer: Its solubility kinetic is 44.1 µg/mL (≈ 145 µM).

Question: For `CC1CCc2c(sc(NC(=O)COC(=O)C3CCCO3)c2C#N)C1` (centres undefined), which solubility kinetic is on record?
Answer: The solubility kinetic was 34.2 µg/mL (≈ 98.2 µM).

Question: With `O=C(c1ccsc1)N1CCCC(N2CCOCC2)C1` (centres undefined) as the molecule, how does the solubility kinetic read?
Answer: Its solubility kinetic is over 42.1 µg/mL.

Question: Which solubility kinetic does the source give for `CC(C)Cn1c(=S)[nH]c2cc(C(=O)O)ccc2c1=O` here?
Answer: Its solubility kinetic is over 41.7 µg/mL.

Question: For `CN(Cc1c(F)cccc1Cl)C(=O)c1cc2ccccc2o1`, which solubility kinetic is on record?
Answer: The solubility kinetic was 12.3 µg/mL (≈ 38.7 µM).

Question: Which solubility kinetic does the source give for `S=C(NCc1ccccc1)N1CCc2ccccc2C1` here?
Answer: The solubility kinetic was 5.6 µg/mL (≈ 19.8 µM).

Question: For `CC(C)CNC(=O)C(=O)Nc1cc2c3c(c1)C(C)C(=O)N3CCC2` (centres undefined), which solubility kinetic is on record?
Answer: Its solubility kinetic is 42.7 µg/mL (≈ 130 µM).

Question: Which solubility kinetic does the source give for `CCCCC(=O)NCc1ccccc1Cl` here?
Answer: The solubility kinetic was over 33.9 µg/mL.

Question: With `C=CCOC(=O)c1cn(CC)c2nc(C)ccc2c1=O` as the molecule, how does the solubility kinetic read?
Answer: Its solubility kinetic is over 40.8 µg/mL.

Question: For `COc1ccc(NC(=S)N(Cc2cccnc2)Cc2ccco2)cc1`, which solubility kinetic is on record?
Answer: The solubility kinetic was 44.8 µg/mL (≈ 127 µM).

Question: For `CC(C)N(C(=O)Nc1ccc2nccnc2c1)C(C)C`, which solubility kinetic is on record?
Answer: Its solubility kinetic is 2.3 µg/mL (≈ 8.44 µM).

Question: Which solubility kinetic does the source give for `CCOc1ccc(N2C(=O)C(Cl)=C(N3CCOCC3)C2=O)cc1` here?
Answer: Its solubility kinetic is over 50.5 µg/mL.

Question: Which solubility kinetic does the source give for `Cc1ccc(N2CC(C(=O)OCC(=O)c3ccc(F)cc3)CC2=O)cc1` (centres undefined) here?
Answer: Its solubility kinetic is 23.5 µg/mL (≈ 66.1 µM).

Question: With `CCc1ccc(Nc2ncc3c(n2)CC(C)(C)CC3=O)cc1` as the molecule, how does the solubility kinetic read?
Answer: Its solubility kinetic is 1.1 µg/mL (≈ 3.72 µM).

Question: With `O=C(O)c1ccc(OCCN2CCCC2=O)cc1` as the molecule, how does the solubility kinetic read?
Answer: Its solubility kinetic is 27.6 µg/mL (≈ 111 µM).

Question: For `Cc1cccc(NC(=O)c2cccc(NC(=O)c3ccccc3)c2)n1`, which solubility kinetic is on record?
Answer: Its solubility kinetic is 7.1 µg/mL (≈ 21.4 µM).

Question: For `O=C(/C=C/c1c(Cl)nc2ccccn12)Nc1ccc(F)cc1`, which solubility kinetic is on record?
Answer: Its solubility kinetic is 4.6 µg/mL (≈ 14.6 µM).

Question: With `CC(C(=O)NCC1CCCCC1)N1CCc2ccccc2C1` (centres undefined) as the molecule, how does the solubility kinetic read?
Answer: Its solubility kinetic is 41.9 µg/mL (≈ 139 µM).

Question: Which solubility kinetic does the source give for `Clc1ccc(-c2ccnc(-n3cccc3)n2)s1` here?
Answer: Its solubility kinetic is under 0.2 µg/mL.

Question: With `CCOC(=O)c1cc(C#N)c(SCC(N)=O)[nH]c1=O` as the molecule, how does the solubility kinetic read?
Answer: The solubility kinetic was over 42.2 µg/mL.

Question: Which solubility kinetic does the source give for `CCn1cc(CCC(=O)NCc2ccccc2OC)c2ccccc21` here?
Answer: The solubility kinetic was 30.5 µg/mL (≈ 90.7 µM).

Question: Which solubility kinetic does the source give for `CC1CC(=O)Nc2ccccc2N1S(=O)(=O)c1ccc(C#N)cc1` (centres undefined) here?
Answer: The solubility kinetic was 2.7 µg/mL (≈ 7.91 µM).

Question: With `O=C(NCc1ccco1)C1CC(c2ccc(Cl)c(Cl)c2)=NO1` (centres undefined) as the molecule, how does the solubility kinetic read?
Answer: Its solubility kinetic is 1.4 µg/mL (≈ 4.13 µM).

Question: With `Cc1ccccc1C(=O)NCC(=O)N1CCN(c2ccccn2)CC1` as the molecule, how does the solubility kinetic read?
Answer: Its solubility kinetic is over 50.8 µg/mL.

Question: For `Cc1c(C(=O)Nc2ccccc2)cc(-c2ccccc2)n1CCCN1CCOCC1`, which solubility kinetic is on record?
Answer: Its solubility kinetic is 36.8 µg/mL (≈ 91.2 µM).

Question: With `COc1ccccc1Oc1ncnc2sccc12` as the molecule, how does the solubility kinetic read?
Answer: Its solubility kinetic is over 38.7 µg/mL.

Question: For `CSc1ccc(CN2CCSCC2)cc1`, which solubility kinetic is on record?
Answer: Its solubility kinetic is 17 µg/mL (≈ 71 µM).

Question: For `CCOC(=O)C1=C(CBr)NC(=O)NC1C` (centres undefined), which solubility kinetic is on record?
Answer: Its solubility kinetic is over 41.6 µg/mL.

Question: With `CN(C)CCNC(=O)COc1cccc2c1OC(C)(C)C2` as the molecule, how does the solubility kinetic read?
Answer: The solubility kinetic was over 43.9 µg/mL.
